Assay results reported in US10513524B2, “PDE9 inhibitors with imidazo triazinone backbone and imidazo pyrazinone backbone for treatment of peripheral diseases” (H. LUNDBECK A/S, priority 2015, dated 2019).

Legend:
PDE1 = PDE1 inhibition assay; assay type: biochemical; details: 15 nM tritium labelled cAMP, SPA beads, 1 h at room temperature
Procedure: Reactions were initiated by addition of the cyclic nucleotide substrate, and reactions were allowed to proceed for 1 h at room temperature before being terminated through mixing with 20 μL (0.2 mg) yttrium silicate SPA beads (PerkinElmer).

[1] = Blood Brain Barrier penetration (brain-to-plasma distribution); assay type: in vivo; details: male CD mice, subcutaneous 10 mg/kg; for Kp at 0.5 h / Kp at 2 h: mouse, brain/plasma, sc; for Brain concentration after 30 minutes / Plasma concentration after 30 minutes / Kp at 0.5 h: 30 min; for Kp at 0.5 h: read-out: Brain/Plasma ratio after 30 minutes; for Brain concentration after 120 minutes / Plasma concentration after 120 minutes / Kp at 2 h: 120 min; for Kp at 2 h: read-out: Brain/Plasma ratio after 120 minutes
Procedure: Male CD mice (20-24 g) were housed pair-wise with free access to food and water for an acclimatization period of 3-7 days before initiation of experiments. Prior to dosing the animals were fasted overnight. During testing, mice were kept in individual cages. The brain-to-plasma distribution was assessed 30 minutes and 2 hours after subcutaneous administration of the test compound at a dose of 10 mg/kg (n=3 at each time point). The dose volume was 10 ml/kg using appropriate vehicle to solubilize each test compound. At the time of sampling, animals were anesthetized with isoflurane and a systemic blood sample collected by cardiac puncture into vacutainers containing sodium heparin as anti-coagulant. The blood was centrifuged at 3500 rpm for 10 minutes at 4° C. to obtain plasma. Following decapitation, brains were dissected out and transferred to pre-weighed vessels followed by tissue weights determination. Plasma and brains were stored at −80° C. until quantitative bioanalysis by LC-MS/MS. Results are expressed as ng/ml for plasma and ng/g for brain samples.

Which IC50 (PDE1) does the source give for `O=c1[nH]c(CN2CC(Oc3cccnc3)C2)cn2c(C3CCOCC3)ncc12` [Compound (P2), 6-[3-(pyridin-3-yloxy)-azetidin-1-ylmethyl]-3-(tetrahydropyran-4-yl)-7H-imidazo[1,5-a]pyrazin-8-one] here?
Its IC50 is 5.28 µM.

And the “Brain concentration after 30 minutes” value [1]?
The value was “Below detection”.

And the “Plasma concentration after 30 minutes” value [1]?
Its value is 30 min.: 715 ng/mL.

And the “Brain concentration after 120 minutes” value [1]?
The value was “Below detection”.

What about the “Plasma concentration after 120 minutes” value [1] of the same molecule?
Its value is 120 min.: 11 ng/mL.

With `C[C@@H]1CN(Cc2ncccn2)C[C@H]1c1nc2c(cnn2C2CCOCC2)c(=O)[nH]1` (single isomer, unassigned) [Reference compound, reference compound] as the molecule, how does the IC50 (PDE1) read?
Its IC50 is 2.5 µM.

For `O=c1[nH]c(CN2CC(Oc3ccncc3)C2)cn2c(-c3ccc(F)cc3)ncc12` [Compound (P1), 3-(4-fluorophenyl)-6-((3-(pyridin-4-yloxy)azetidin-1-yl)methyl)imidazo[1,5-a]pyrazin-8(7H)-one], which IC50 (PDE1) is on record?
Its IC50 is 45.1 µM.

What about the “Brain concentration after 30 minutes” value [1] of the same molecule?
The value was 30 min.: 42 ng/mL.

And the “Plasma concentration after 30 minutes” value [1]?
Its value is 30 min.: 719 ng/mL.

What about the “Brain concentration after 120 minutes” value [1] of the same molecule?
Its value is 120 min.: 7 ng/mL.

What about the “Plasma concentration after 120 minutes” value [1] of the same molecule?
The value was 120 min.: 86 ng/mL.

And the Kp at 0.5 h [1]?
Its Kp at 0.5 h is 0.06.

And the Kp at 2 h [1]?
Its Kp at 2 h is 0.08.

Which IC50 (PDE1) does the source give for `C[C@@H]1CN(Cc2ncccn2)C[C@H]1c1cn2c(C3CCOCC3)ncc2c(=O)[nH]1` (single isomer, unassigned) [Compound (P3, enantiomer 1)] here?
Its IC50 is 3 µM.

And the “Brain concentration after 30 minutes” value [1]?
Its value is 30 min.: 67 ng/mL.

What about the “Plasma concentration after 30 minutes” value [1] of the same molecule?
Its value is 30 min.: 1620 ng/mL.

What about the “Brain concentration after 120 minutes” value [1] of the same molecule?
The value was 120 min.: 7 ng/mL.

What about the “Plasma concentration after 120 minutes” value [1] of the same molecule?
The value was 120 min.: 226 ng/mL.

And the Kp at 0.5 h [1]?
The Kp at 0.5 h was 0.04.

What about the Kp at 2 h [1] of the same molecule?
The Kp at 2 h was 0.03.

Which results are given for `O=c1[nH]c(CN2CC(OCc3ccc(F)cc3)C2)nn2c(C3CCOCC3)ncc12` [Compound (P4)]?
Brain concentration after 30 minutes [1]: 30 min.: 125 ng/mL; Plasma concentration after 30 minutes [1]: 30 min.: 3380 ng/mL; Brain concentration after 120 minutes [1]: 120 min.: 15 ng/mL; Plasma concentration after 120 minutes [1]: 120 min. 352 ng/mL
